Consider 1 molecule from patent publication US9708314B2, “Heterocyclic amide compound” (NISSAN CHEMICAL INDUSTRIES, LTD., priority 2013, dated 2017).

Series [1] deals with directly sowed Oryza sativa. As to the kind of experiment: Test Example 3: effect on crop by application to foliage (Wagner pot, water depth 0.1-0.5 cm). The format is in vivo. Conditions: Nineteenth Table; application herbicide amount 320 g/ha. The gist of the method: (§1)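 Grading uses six bands of herbicidal ratio, from 0 (≤5%, almost no effect) to 5 (≥90%, almost completely withered). Treatment was a stem-and-leaf spray of diluted emulsion at a fixed g/ha on 14-day-old plants; evaluation after three weeks.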

The test system of the next series is Triticum aestivum. As to the kind of experiment: Test Example 4: effect on crop by application to foliage (diluvial soil, plastic box). Format: in vivo. The note with it: application to foliage, application herbicide amount 320 g/ha. A digest of the protocol: (§2)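 Plants were grown in sterilized diluvial soil in a greenhouse at 25-30° C for 14 days, then sprayed on stems and leaves with water-diluted emulsion formulation at set rates in g/ha. Weed control and crop injury were scored 3 weeks after treatment on a 0-5 herbicidal-ratio scale, from 0 (≤5%) to 5 (≥90%).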

A further series deals with Zea mays. The description is as above. Conditions: application to foliage, application herbicide amount 320 g/ha. Format: in vivo. The gist of the method: as §2
The test system of a further series is Glycine max. Described as above. The format is in vivo. The note with it: application to foliage, application herbicide amount 320 g/ha. A digest of the protocol: as §2
The test system of series [2] is Beta vulgaris ssp. vulgaris. The series is described as above. Conditions: application to foliage, application herbicide amount 320 g/ha. The format is in vivo. The gist of the method:
as §2

The test system of series [3] is directly sowed Oryza sativa. The description is as above. The format is in vivo. The note with it: application to foliage, application herbicide amount 320 g/ha. A digest of the protocol: as §2
The next series has as its system Brassica campestris L. The description is as above. Format: in vivo. Conditions: application to foliage, application herbicide amount 320 g/ha. The gist of the method:
as §2

In series [4] the test system is Echinochloa crus-galli var. crus-galli. As to the kind of experiment: Test Example 3: herbicidal effect by application to foliage (Wagner pot, water depth 0.1-0.5 cm). The note with it: Nineteenth Table; application herbicide amount 320 g/ha. Format: in vivo. A digest of the protocol: as §1
The subject of the next series is Cyperus difformis. The description is as above. The format is in vivo. Conditions: Nineteenth Table; application herbicide amount 320 g/ha. A digest of the protocol:
as §1

A further series concerns Leptochloa chinensis. Described as above. Format: in vivo. The note with it: Nineteenth Table; application herbicide amount 320 g/ha. A digest of the protocol:
as §1

Series [5] deals with Echinochloa crus-galli var. crus-galli. As to the kind of experiment: Test Example 4: herbicidal effect by application to foliage (diluvial soil, plastic box). The format is in vivo. The note with it: application to foliage, application herbicide amount 320 g/ha. The gist of the method:
as §2

The test system of a further series is Veronica persica. The description is as above. Format: in vivo. Conditions: application to foliage, application herbicide amount 320 g/ha. A digest of the protocol: as §2
The test system of the next series is Abutilon theophrasti. The description is as above. The format is in vivo. Conditions: application to foliage, application herbicide amount 320 g/ha. A digest of the protocol:
as §2

The test system of another series is Alopecurus myosuroides. The description is as above. The format is in vivo. The note with it: application to foliage, application herbicide amount 320 g/ha. A digest of the protocol: as §2
The subject of a further series is Avena fatua. The description is as above. Format: in vivo. Conditions: application to foliage, application herbicide amount 320 g/ha. A digest of the protocol:
as §2

The test system of the next series is Lolium multiflorum Lam. The series is described as above. The format is in vivo. Conditions: application to foliage, application herbicide amount 320 g/ha. A digest of the protocol:
as §2

For another series, the system named is Stellaria media. The series is described as above. Format: in vivo. The note with it: application to foliage, application herbicide amount 320 g/ha. A digest of the protocol:
as §2

The next series deals with Amaranthus retroflexus. The description is as above. The note with it: application to foliage, application herbicide amount 320 g/ha. Format: in vivo. A digest of the protocol: as §2
The subject of the next series is Chenopodium album. The series is described as above. The format is in vivo. The note with it: application to foliage, application herbicide amount 320 g/ha. The gist of the method:
as §2

The next series concerns Digitaria ciliaris. The series is described as above. Conditions: application to foliage, application herbicide amount 320 g/ha. The format is in vivo. The gist of the method:
as §2

The subject of a further series is Apera spica-venti. The description is as above. Format: in vivo. Conditions: application to foliage, application herbicide amount 320 g/ha. The gist of the method:
as §2

The subject of the next series is Galium spurium. Described as above. Format: in vivo. Conditions: application to foliage, application herbicide amount 320 g/ha. A digest of the protocol: as §2
For the next series, the system named is Setaria viridis. Described as above. The format is in vivo. The note with it: application to foliage, application herbicide amount 320 g/ha. A digest of the protocol: as §2

On to `Cc1nnc(NC(=O)c2ccc(C(F)(F)F)n3c(Cl)nnc23)o1` [1-013, 3-Chloro-N-(5-methyl-1,3,4-oxadiazol-2-yl)-5-(trifluoromethyl)-[1,2,4]triazolo[4,3-a]pyridine-8-carboxamide], for which the melting point – broadly, the temperature, or range, at which the solid turns liquid – lay within 238 to 241 °C. Also, the “b (directly sowed Oryza sativa) effect on crop grade” value in series [1] is recorded as 0 (Herbicidal ratio of 5% or less (almost no effect)). In addition, in the series on Triticum aestivum, the “e (Triticum aestivum) effect on crop” value was 1 (Herbicidal ratio of 5% or more and less than 20%). Further, the “b (Zea mays) effect on crop” value with Zea mays is listed as 0 (Herbicidal ratio of 5% or less (almost no effect)). Also, the “c (Glycine max) effect on crop” value with Glycine max was 0 (Herbicidal ratio of 5% or less (almost no effect)). Further, in series [2], the “f (Beta vulgaris ssp. vulgaris) effect on crop” value is 3 (Herbicidal ratio of 40% or more and less than 70%). Further, the “d (directly sowed Oryza sativa) effect on crop” value in series [3] was 0 (Herbicidal ratio of 5% or less (almost no effect)). Besides, the “g (Brassica campestris L.) effect on crop” value in the series on Brassica campestris L. is given as 0 (Herbicidal ratio of 5% or less (almost no effect)). Also, the “H (Echinochloa crus-galli var. crus-galli) herbicidal ratio grade” value in series [4] was 3 (Herbicidal ratio of 40% or more and less than 70%). Moreover, the “E (Cyperus difformis) herbicidal ratio grade” value in the series on Cyperus difformis is 3 (Herbicidal ratio of 40% or more and less than 70%). For the same molecule, the “D (Leptochloa chinensis) herbicidal ratio grade” value in the series with Leptochloa chinensis is 4 (Herbicidal ratio of 70% or more and less than 90%). The “H (Echinochloa crus-galli var. crus-galli) herbicidal effect” value in [5] is 4 (Herbicidal ratio of 70% or more and less than 90%). Besides, the “R (Veronica persica) herbicidal effect” value with Veronica persica is 3 (Herbicidal ratio of 40% or more and less than 70%). Besides, in the series with Abutilon theophrasti, the “M (Abutilon theophrasti) herbicidal effect” value was 3 (Herbicidal ratio of 40% or more and less than 70%). The “J (Alopecurus myosuroides) herbicidal effect” value in the series with Alopecurus myosuroides was 1 (Herbicidal ratio of 5% or more and less than 20%). Also, the “I (Avena fatua) herbicidal effect” value with Avena fatua is listed as 0 (Herbicidal ratio of 5% or less (almost no effect)). In the series on Lolium multiflorum Lam., the “K (Lolium multiflorum Lam.) herbicidal effect” value was 1 (Herbicidal ratio of 5% or more and less than 20%). Moreover, in the series with Stellaria media, the “P (Stellaria media) herbicidal effect” value is 4 (Herbicidal ratio of 70% or more and less than 90%). Also, the “N (Amaranthus retroflexus) herbicidal effect” value in the series on Amaranthus retroflexus was 3 (Herbicidal ratio of 40% or more and less than 70%). For the same molecule, the “O (Chenopodium album) herbicidal effect” value in the series with Chenopodium album is listed as 5 (Herbicidal ratio of 90% or more (almost completely withered)). In addition, the “F (Digitaria ciliaris) herbicidal effect” value with Digitaria ciliaris was 3 (Herbicidal ratio of 40% or more and less than 70%). For the same molecule, in the series with Apera spica-venti., the “L (Apera spica-venti.) herbicidal effect” value was 0 (Herbicidal ratio of 5% or less (almost no effect)). Moreover, the “Q (Galium spurium) herbicidal effect” value with Galium spurium is 1 (Herbicidal ratio of 5% or more and less than 20%). For the same molecule, in the series with Setaria viridis, the “G (Setaria viridis) herbicidal effect” value is 1 (Herbicidal ratio of 5% or more and less than 20%).
